Experimental data taken from patent publication US9481654B2, “Compositions and methods for inhibition of the JAK pathway” (Rigel Pharmaceuticals, Inc., priority 2006, dated 2016).

The compounds below were run on IFNγ induced ICAM-1 (CD54) up-regulation in A549 lung epithelial cells (JAK/Stat pathway) (assay: A549 Epithelial Line Stimulated with IFNγ (ICAM-1 surface expression, flow cytometry)). Conditions: Table III Example 5.
Assay type: cell-based, human
Summary of the method: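 A549 cells (20,000/well, adhered overnight) pre-treated with compound 1 h, then IFNγ 75 ng/mL for 24 h; compound 30 μM–14 nM in 5% FBS, 0.3% DMSO. Surface ICAM-1 stained with APC anti-CD54, geometric mean by flow cytometry; dose-response gives EC50.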

Row | Compound | IC50 [µM]
1 | COCCNS(=O)(=O)c1cc(Nc2ncc(C)c(Nc3cccc(CNS(=O)(=O)C4CC4)c3)n2)ccc1C [Compound I-210, N4-(3-cyclopropylsulfonylaminomethyl)phenyl-N2-[3-(2-methoxyethyl)aminosulfonyl-4-methyl]phenyl-5-methyl-2,4-pyrimidinediamine] | 2.47
2 | Cc1cnc(Nc2ccc(S(N)(=O)=O)cc2)nc1Nc1ccc2c(c1)CCN(S(=O)(=O)C1CC1)C2 [II-1, N2-(4-aminosulfonyl)phenyl-N4-[(N-cyclopropylsulfonyl)-1,2,3,4-tetrahydroisoquinolin-6-yl]-5-methyl-2,4-pyrimidinediamine] | 18.3
3 | Cc1ccc(Nc2ncc(C)c(Nc3ccc4c(c3)CCN(S(=O)(=O)C3CC3)C4)n2)cc1S(N)(=O)=O [II-3, N2-(3-aminosulfonyl-4-methyl)phenyl-N4-[(N-cyclopropylsulfonyl)-1,2,3,4-tetrahydroisoquinolin-6-yl]-5-methyl-2,4-pyrimidinediamine] | 12.4
4 | Cc1cnc(Nc2cccc(S(N)(=O)=O)c2)nc1Nc1ccc2c(c1)CN(S(=O)(=O)C1CC1)C2 [II-8, N2-(3-Aminosulfonyl-phenyl)-N4-[(2-cyclopropylsulfonyl)-isoindolin-5-yl]-5-methyl-2,4-pyrimidinediamine] | 17.8
